Experimental data reported in patent US20230399312A1, “SUBSTITUTED PYRIMIDINES AND METHODS OF USE” (THERAVANCE BIOPHARMA R&D IP, LLC, priority 2020, published 2023).
pKi: −log10 of the molar value.

Key:
[1] = molecular target: T1, recombinant human ALK5 (TGF-βR1) protein (Homo sapiens, UniProt P36897); assay: Biochemical ALK5 (TGF-βR1) assay to measure pKi (LANCE Ultra ULight kinase assay); conditions: apparent pKi, converted from pIC50 by Cheng-Prusoff
T1 construct: purchased Life Technologies PR9075A
T1 sequence (P36897 34-503): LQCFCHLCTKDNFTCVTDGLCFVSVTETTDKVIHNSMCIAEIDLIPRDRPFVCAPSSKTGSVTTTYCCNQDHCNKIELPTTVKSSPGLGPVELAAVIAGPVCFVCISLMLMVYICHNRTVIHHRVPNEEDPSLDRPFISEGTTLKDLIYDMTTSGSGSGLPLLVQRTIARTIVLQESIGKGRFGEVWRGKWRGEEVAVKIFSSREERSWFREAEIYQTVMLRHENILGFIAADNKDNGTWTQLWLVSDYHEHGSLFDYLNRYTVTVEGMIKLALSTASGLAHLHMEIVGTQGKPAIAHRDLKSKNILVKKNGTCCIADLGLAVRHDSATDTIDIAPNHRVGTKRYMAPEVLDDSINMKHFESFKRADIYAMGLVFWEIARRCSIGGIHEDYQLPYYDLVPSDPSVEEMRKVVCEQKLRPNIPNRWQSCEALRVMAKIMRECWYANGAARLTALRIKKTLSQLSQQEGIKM
How it was run: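 Cmpd + enzyme, 60 min RT; ATP from 125 μM (5×) stock, 60 min 37 °C; stop 12 mM EDTA/Eu anti-pThr1342 Topo2α Ab (pH 7.0 buffer); TR-FRET 665 nm. DMSO = max, SD-208 = min signal. 4-PL pIC50 → pKi (Cheng-Prusoff).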

[2] = tested on: TGF-β-stimulated SMAD3 phosphorylation in BEAS-2B cells; assay: Cellular ALK5 potency assay, inhibition of TGF-β stimulated pSMAD3 formation in BEAS-2B cells; format: cell-based; conditions: Homo sapiens, pSMAD3, TGF-β 10 ng/mL, read-out: BEAS2B pIC50 (converted)
How it was run: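 Reported as pIC50, potency reflects dose-dependent loss of AlphaLISA pSMAD3 signal versus TGF-β-stimulated, compound-free BEAS-2B cells. Compound was applied for 1 h in BSA-containing HBSS buffer before a 30-min challenge with TGF-β at 10 ng/mL final.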

Compound | pKi [1] | IC50 [2]
CNC(=O)[C@H]1CN(c2ccc(Nc3nccc(Nc4ccnc(-c5cccc(C)n5)n4)n3)cc2)CCN1 [Compound 334, (2R)-N-methyl-4-[4-[[4-[[2-(6-methyl-2-pyridyl)pyrimidin-4-yl]amino]pyrimidin-2-yl]amino]phenyl]piperazine-2-carboxamide] | 9.50 to 10.40 | 25.1 to 158 nM
Cc1cccc(-c2nc(Nc3ccnc(Nc4csc(C(=O)O)c4)n3)c3cccn3n2)n1 [Compound 1023, 4-[[4-[[2-(6-methyl-2-pyridyl)pyrrolo[2,1-f][1,2,4]triazin-4-yl]amino]pyrimidin-2-yl]amino]thiophene-2-carboxylic acid] | 8.50 to 9.40 | 200 to 1260 nM
Cc1cccc(-c2nccc(Nc3ccnc(Nc4csc(C(=O)OCCN5CCC[C@H](N)C5)c4)n3)n2)n1 [Compound 619, 2-[(3S)-3-amino-1-piperidyl]ethyl 4-[[4-[[2-(6-methyl-2-pyridyl)pyrimidin-4-yl]amino]pyrimidin-2-yl]amino]thiophene-2-carboxylate] | 9.50 to 10.40 | 25.1 to 158 nM
Cc1cccc(-c2nccc(Nc3ccnc(Nc4ccc(CN5CCC[C@H](C(=O)OCC6CNC6)C5)cc4)n3)n2)n1 [Compound 67, azetidin-3-ylmethyl (3S)-1-[[4-[[4-[[2-(6-methyl-2-pyridyl)pyrimidin-4-yl]amino]pyrimidin-2-yl]amino]phenyl]methyl] piperidine-3-carboxylate] | 9.50 to 10.40 | 25.1 to 158 nM
Cc1cccc(-c2nccc(Nc3ccnc(Nc4cccc(CN5CCSCC5)c4)n3)n2)n1 [Compound 39, N4-[2-(6-methyl-2-pyridyl)pyrimidin-4-yl]-N2-[3-(thiomorpholinomethyl)phenyl] pyrimidine-2,4-diamine] | 9.50 to 10.40 | 25.1 to 158 nM

The next lines start with results.

pKi [1] | Compound | IC50 [2]
9.50 to 10.40 | Cc1cccc(-c2nccc(Nc3ccnc(Nc4ccc(CN5CCN(Cc6ccccc6)CC5)cc4)n3)n2)n1 [Compound 23, N2-[4-[(4-benzylpiperazin-1-yl)methyl]phenyl]-N4-[2-(6-methyl-2-pyridyl)pyrimidin-4-yl]pyrimidine-2,4-diamine] | 25.1 to 158 nM
9.50 to 10.40 | Cc1cccc(-c2nccc(Nc3ccnc(Nc4ccc(CN5CCC[C@@H](C(=O)OCC6CN(C)C6)C5)cc4)n3)n2)n1 [Compound 182, (1-methylazetidin-3-yl)methyl (3R)-1-[[4-[[4-[[2-(6-methyl-2-pyridyl)pyrimidin-4-yl]amino]pyrimidin-2-yl]amino]phenyl]methyl] piperidine-3-carboxylate] | 25.1 to 158 nM
9.50 to 10.40 | Cc1cccc(-c2nccc(Nc3ccnc(Nc4csc(C(=O)O[C@H]5C[C@@H](N)C5)c4)n3)n2)n1 [Compound 631, (3-aminocyclobutyl) 4-[[4-[[2-(6-methyl-2-pyridyl)pyrimidin-4-yl]amino]pyrimidin-2-yl]amino]thiophene-2-carboxylate] | 25.1 to 158 nM
9.50 to 10.40 | Cc1cccc(-c2nccc(Nc3ccnc(Nc4ccc(NCCN5CCNCC5)cc4)n3)n2)n1 [Compound 157, N4-[2-(6-methyl-2-pyridyl)pyrimidin-4-yl]-N2-[4-(2-piperazin-1-ylethylamino)phenyl]pyrimidine-2,4-diamine] | 200 to 1260 nM
9.50 to 10.40 | Cc1cccc(-c2nccc(Nc3ccnc(Nc4ccc(NC(=O)N5CCN[C@@H](CO)C5)cc4)n3)n2)n1 [Compound 276, (3R)-3-(hydroxymethyl)-N-[4-[[4-[[2-(6-methyl-2-pyridyl)pyrimidin-4-yl]amino]pyrimidin-2-yl]amino]phenyl]piperazine-1-carboxamide] | 25.1 to 158 nM
9.50 to 10.40 | Cc1cccc(-c2nccc(Nc3ccnc(Nc4ccc(N5CCOCC5)c(F)c4)n3)n2)n1 [Compound 300, N2-(3-fluoro-4-morpholino-phenyl)-N4-[2-(6-methyl-2-pyridyl)pyrimidin-4-yl]pyrimidine-2,4-diamine] | 25.1 to 158 nM
